Assays:
Format in all cases: in vivo
B57BL/6J mice [1] = assay: Restraint stress-mediated immunosuppression in anti-platelet (CD41) Ig induced immune thrombocytopenia (ITP) model, platelet counts; conditions: for rescue of restraint stress-mediated immunosuppression (ITP model): restraint (psychological) stress, FIG. 7
Protocol: Experiment outlines (A). The effects of tanshinone IIA treatments on the restraint stress-mediated amelioration of immune thrombocytopenia (ITP) (B) were analyzed. The data are representative of three independent experiments with two mice per group (n=6). ** P<0.01 compared with the respective vehicle groups in the tanshinone IIA vs. vehicle treatments (B).
The effects of tanshinone I (A), crytotanshinone (B), tanshinone IIA sodium sulfate (C) treatments on the restraint stress-mediated amelioration of immune thrombocytopenia (ITP) were analyzed. The data are representative of three independent experiments with two mice per group (n=6). * P<0.05, ** P<0.01 compared with the respective vehicle without stress (0 h) groups, #P<0.05, ##P<0.01 compared with the respective tanshinone IIA, without stress groups in the ITP experiments.
(§1) Autoimmune thrombocytopenia (ITP) mouse model, through intravascular injections of anti-platelet (CD41) Ig following previously reported methods (Huang et al., Blood 2010; 116:5002-9), was employed to investigate the immunosuppressive property of cold exposure and restraint stress, and immune enhancing properties of tanshinone IIA and its derivatives. The B57BL/6J mice were intravenously injected with 0.1 mg/kg (body weight) of an antiplatelet monoclonal antibody (rat antimouse integrin αIIb/CD41 Ig, clone MWReg30, BD PharMingen) to induce ITP. Mice with or without injections of anti-CD41 Ig were subjected to cold exposure and restraint stress. To address the immune enhancing properties of tanshinone IIA, these mice were further treated with or without tanshinone I, tanshinone IIA, tanshinone IIA sodium sulfate, crytotanshinone (10-2 to 10 mg/kg) treatments. To determine the mouse platelet counts, whole blood samples (100-120 μL) of the mice were collected from the retro-orbital venous plexus and mixed with an anticoagulant, a citrate dextrose solution (38 mM citric acid, 75 mM sodium citrate, and 100 mM dextrose), in Eppendorf tubes. Subsequently, platelet counts were measured using a hematology analyzer (KX-21N, Sysmex) at various time intervals as previously described (Chan et al., Oncotarget 2018; 9:12781-95; Huang et al., Blood 2010; 116:5002-9).

B57BL/6J mice [2] = assay: Cold stress-mediated immunosuppression in anti-platelet (CD41) Ig induced immune thrombocytopenia (ITP) model, platelet counts; conditions: for rescue of cold stress-mediated immunosuppression (ITP model): FIG. 8
Protocol: (§2) Experiment outlines (A and C). The effects of tanshinone IIA treatments on the cold-mediated amelioration of immune thrombocytopenia (ITP) (B) and cold-suppressed bacterial clearance (D) were analyzed. The data are representative of three independent experiments with two mice per group (n=6). ** P<0.01 compared with the respective vehicle (25° C.) groups, ##P<0.01 compared with the respective tanshinone IIA 25° C. groups (B and D).
The effects of tanshinone I (A), crytotanshinone (B), tanshinone IIA sodium sulfate (C) treatments on the cold-mediated amelioration of immune thrombocytopenia (ITP) were analyzed. The data are representative of three independent experiments with two mice per group (n=6). ** P<0.01 compared with the respective vehicle (25° C.) groups, ##P<0.01 compared with the respective tanshinone IIA 25° C. groups.
as §1

E. coli, BL21 = assay: Cold-suppressed bacterial clearance (surviving bacteria in spleen); conditions: mice challenged i.v. with E. coli, compared to vehicle control (without immunosuppression) groups, FIG. 4D
Protocol: as §2
The bacterium E. coli was cultured using standard methods. To analyze the immunosuppressive effects of cold exposure and restraint stress on bacterial clearance, following our previously developed methods (Chan et al., Oncotarget 2018; 9:12781-95), the experimental mice were challenged by intravenously administering bacteria (E. coli, BL21, 6×10^9 CFU/kg; no mortality within 24 h at 4° C.); a 40-h circulating equilibrium at a 25° C. environment was required before cold exposure (control groups: 25° C. exposure) and restraint stress. One day after treatment with cold exposure or restraint stress, the spleens of the euthanized mice were collected and weighed. After homogenization (homogenizer, BioSpec Products, Racine, Wis., USA) in PBS, surviving bacteria (colony forming units [CFUs]) in the spleen tissues were quantified using the standard plating method. […]

B57BL/6J mice [3] = assay: Cold stress-induced gastrointestinal leakage (circulating Evans blue); conditions: stressed, 9 h groups with vs without TSNIIA, #P<0.05, FIG. 3
Protocol: (§3) Experiment outlines (A). The effects of tanshinone IIA treatments on the amelioration of cold exposure-induced gastrointestinal leakage (B) were analyzed. The data are representative of three independent experiments with two mice per group (n=6). ** P<0.01 compared with the respective 5 h, no stress groups, #P<0.05 compared with the respective stress groups of each time course (B). EB: Evans blue.
(§4) The results of the exemplary rescue of restraint stress-induced gastrointestinal leakage by tanshinone IIA (TSNIIA) treatments are shown in FIG. 1. Evans blue, a gastrointestinal non-absorbable dye, is able to bind circulating albumin to form dye-protein complexes, which cannot normally penetrate the endothelial cell layers of the vascular system, unless the tissue has been damaged (Yao et al., Contrast Media Mol Imaging 2018; 2018:7628037). Accordingly, circulating Evens blue levels are approximately and proportionally correlated to the levels of gastrointestinal injury.

cortisol = assay: Cold stress-induced plasma cortisol (ELISA); conditions: mice, FIG. 5
Protocol: The time course on the effects of tanshinone IIA treatments on the cold-mediated amelioration of immune thrombocytopenia (ITP) (A) and cold-induced elevation of cortisol (B) was analyzed. The data are representative of three independent experiments with two mice per group (n=6). ** P<0.01 compared with the respective vehicle (25° C.)/vehicle (0 h) groups.
Blood samples were collected from experimental mice under cold stress or restraint stress for 7 h. The plasma levels of cortisol were measured using an ELISA kit (Cayman Chemical, Ann Arbor, Mich., USA) as previously described (Chan et al., Oncotarget 2018; 9:12781-95).

B57BL/6J mice [4] = assay: Restraint stress-induced gastrointestinal leakage (circulating Evans blue); conditions: stressed, 9 h groups with vs without TSNIIA, #P<0.05, FIG. 1
Protocol: as §3, with “restraint stress induced” for “cold exposure-induced”, “* P<0.05” for “** P<0.01”
as §4

| Molecule | rescue of restraint stress-mediated immunosuppression (ITP model) (B57BL/6J mice [1]) | rescue of cold stress-mediated immunosuppression (ITP model) (B57BL/6J mice [2]) | platelet counts after restraint stress in anti-platelet (CD41) Ig induced thrombocytopenia (B57BL/6J mice [1]; restraint stress, compared to vehicle control (without immunosuppression) groups, FIG. 2) | bacterial clearance rate after cold stress (E. coli, BL21) | cold stress-induced gastrointestinal injury (circulating Evans blue levels) (B57BL/6J mice [3]) | cold stress-induced levels of circulating cortisol (cortisol) | restraint stress-induced gastrointestinal injury (circulating Evans blue levels) (B57BL/6J mice [4]) | platelet counts after cold stress in anti-platelet (CD41) Ig induced thrombocytopenia (B57BL/6J mice [2]; compared to vehicle control (without immunosuppression) groups, FIG. 4B) |
| --- | --- | --- | --- | --- | --- | --- | --- | --- |
| C[C@H]1COC2=C1C(=O)C(=O)c1c2ccc2c1CCCC2(C)C [crytotanshinone] | exert similar immune enhancing properties under psychological stress | exert similar immune enhancing properties under cold stress |  |  |  |  |  |  |
| Cc1coc2c1C(=O)C(=O)c1c-2ccc2c1CCCC2(C)C [tanshinone IIA] | exert similar immune enhancing properties under psychological stress | exert similar immune enhancing properties under cold stress | remain low and do not show statistical significance as compared to the vehicle control | the bacterial clearance rate is high | able to ameliorate cold stress-induced gastrointestinal injury | counteract the cold stress-induced levels of circulating anti-inflammatory steroid hormone cortisol | able to ameliorate stress-induced gastrointestinal injury | remain low and do not show statistical significance as compared to the vehicle control |
| Cc1coc2c1C(=O)C(=O)c1c-2ccc2c(C)cccc12 [tanshinone I] | exert similar immune enhancing properties under psychological stress | exert similar immune enhancing properties under cold stress |  |  |  |  |  |  |
| tanshinone IIA sodium sulfate | exert similar immune enhancing properties under psychological stress | exert similar immune enhancing properties under cold stress |  |  |  |  |  |  |

Reference: US20210393585A1, “METHOD FOR PREVENTING AND/OR TREATING A STRESS-INDUCED DISEASE” (TZU CHI UNIVERSITY, priority 2020, published 2021)
